Consider three compounds from BindingDB's records for doi:10.1016/j.bmc.2018.11.013 (Csir-Indian Institute of Integrative Medicine, 2018).

This series is described as follows: Inhibition of human CYP1A1 expressed in HEK293 cells assessed as reduction in CYP1A1 mediated B[alpha]P-7,8- dihydrodiol induced-toxicity by measuring EC50 at 3 times of IC50 concentration by MTT assay (Rvb = 1.4 +/ 0.4 uM). (Tetrazolium dyes change colour on reduction, which living cells bring about.)

Molecules are shown by their SMILES.

As usually defined, the EC50 is the midpoint of the concentration-response curve.

Regarding `COc1c(-c2ccc3c(c2)OCO3)oc2c(ccc3occc32)c1=O` [Pongapin], the 50% effective concentration (EC50) was determined as 14.8 µM.

Take `O=c1cc(-c2ccccc2)oc2c1ccc1occc12` [LANCEOLATIN B]: the EC50 was 14.4 µM. On to `COc1c(C(=O)/C=C(\O)c2ccccc2)ccc2occc12` [Pongamol], for which the EC50 stood at 10.2 µM.
